Results published in US20130288956A1, “COMBINED PHARMACEUTICAL COMPOSITION AS ANTIFUNGAL AGENT” (priority 2010, published 2013).
Numbered stars: 1 amine (or outer) side, 2 acyl side, 3 side chain; on linkers, the order of the positions; unused ones are H or OH. Bridge positions count the residues as written; N and C are the ends. Square brackets hold non-standard residues; d marks the D form. Peptide text beside a SMILES is read from it. * marks the point of attachment. hTyr(3S-OH,4S-OH,3'-OSO3H) = N[C@H](C(=O)O)[C@H](O)[C@@H](O)c1ccc(O)c(OS(=O)(=O)O)c1; Orn(4R-OH,5R-OH) = O=C([C@H](C[C@@H](O)[C@@H](O)N[*:3])N[*:1])[*:2]; Pro(3S-OH,4S-Me) = C[C@H]1CN[C@H](C(=O)O)[C@H]1O; X1 = CCCCCOc1ccc(-c2cc(-c3ccc(C(=O)*)cc3)no2)cc1; Gln(3R-OH) = NC(=O)C[C@@H](O)[C@H](N)C(=O)O; Hyp = O=C(O)[C@@H]1C[C@@H](O)CN1

Experiments:
[1] = tested on: A. fumigatus strain IFM52108; assay: A. fumigatus respiratory tract infection model; assay type: in vivo, mice; conditions: for Combination effects in mouse Aspergillus fumigatus infection model: combination with the test compound of the invention
Protocol: (§1) Female DBA/2N mice (age 8 weeks, Charles River Laboratories Japan, Inc.) were subcutaneously administered 200 mg/kg of 5-fluorouracil 5 or 6 days prior to infection in order to put the mice into a compromised state.
(§2) A. fumigatus strain IFM52108 and A. flavus strain IFM50915 were used.
A liquid containing spores of A. fumigatus strain IFM52108 stored at −80° C. was applied to Potato Dextrose agar medium (PDA, Eiken Chemical Co., Ltd.) followed by static culturing for 5 to 7 days at 35° C. and suspending in sterile physiological saline containing 0.05% Tween 80.
The number of spores was counted using a hemocytometer, and the liquid was diluted with sterile physiological saline containing 0.05% Tween 80 to a concentration of 1.2×10^6 cells/mL to 2.5×10^6 cells/mL to obtain an inoculation fungus liquid.
(§3) 50 μl of inoculation fungus liquid were inoculated into the nasal cavities of 9-week-old mice at 0.3×10^5 cells/mouse to 1.25×10^5 cells/mouse under Ketalar anesthesia.
(§4) 0.1 mL to 0.2 mL of each drug solution (dissolved in sterile physiological saline or 5% glucose solution, or dissolved in sterile physiological saline or 5% glucose solution containing 6.5% dimethylsulfoxide and 3.5% Tween 80) was administered to the individual and combination dose groups either into the peritoneal cavity or into the stomach using a gastric cannula corresponding to the administration route of the drug for 3 to 4 days at the rate of 1 to 2 times per day starting 0.5 hours to 1 hour after inoculation of fungus.
(§5) There were 5 to 9 animals in each group.
(§6) Infection protection results were assessed on survival rate 14 days after infection.

[2] = tested on: A. flavus; assay: In vitro combination effects, checkerboard method by micro dilution (FIC index); assay type: cell-based, Aspergillus flavus; conditions: A. flavus (4 strains)
Protocol: (§7) A clinically isolated strain retained by the Medical Mycology Research Center of Chiba University (Code No. IFM) and a clinically isolated strain retained by the Life Science Research Center of Gifu University (Code No. E) were used as Candida and Aspergillus strains.
(§8) An Aspergillus strain stored frozen at −80° C., or spores obtained by static culturing at 35° C. for 1 week in Potato Dextrose agar medium (PDA, Eiken Chemical Co., Ltd.) followed by scraping from the container with a metal loop, was diluted with RPMI 1640 medium containing 0.165 M MOPS to prepare a fungus liquid having a fungus concentration of 0.75×10^4 cells/mL to 1.33×10^4 cells/mL.
(§9) Test Compound 1 (0.0005 μg/mL to 1.56 μg/mL) in the horizontal rows (12 wells) of a 96-well flat-bottom plate, and an antifungal agent in the form of ravuconazole (0.0015 μg/mL to 6.25 μg/mL), fluconazole (0.008 μg/mL to 32 μg/mL), voriconazole (0.0002 μg/mL to 8 μg/mL), micafungin (0.0005 μg/mL to 0.25 μg/mL), caspofungin (0.0005 μg/mL to 1 μg/mL) or amphotericin B (0.008 μg/mL to 8 μg/mL) in the vertical rows (8 wells) of the flat-bottom plate were prepared by diluting so as to blend together using RPMI 1640 medium containing 0.165 M MOPS to obtain a control group, a single Test Compound 1 group, each one of antifungal agents groups and combination groups of Test Compound 1+each one of antifungal agents.
(§10) The fungus liquids prepared in (1) were inoculated into the wells of 96-well flat-bottom plate containing 20 μL/well to 75 μL/well of the diluted test drug liquids prepared in (2) at 80 μL/well to 125 μL/well, followed by aerobically static culturing for 25 hours to 48 hours at 35° C.
(§11) Combination effects of Test Compound 1 and the antifungal agents were measured with the checkerboard method by micro dilution.
(§12) Interaction between both drugs was assessed by calculating the FIC index using the calculation formula indicated below.
(§13) The FIC index was calculated for each combination of antifungal agent concentrations that inhibited fungal growth, and the minimum value of the resulting FIC index was used as a combination FIC index.
(§14) A combination FIC index of 0.5 or less was evaluated as indicating synergistic action, that of 0.5 to 1 or less was evaluated as indicating additive action, and that of 1 to 4 or less was evaluated as indicating indifferent action.
(§15) FIC Index=(MIC value of drug A during combination use/MIC value of drug A when used alone)+(MIC value of drug B during combination use/MIC value of drug B when used alone) (Calculation Formula)

[3] = tested on: C. albicans; assay: as above; assay type: cell-based, Candida albicans
Protocol: as §7
(§16) Fungus liquid obtained by static culturing at 35° C. for 48 hours in Sabouraud Dextrose liquid medium (SDB, Becton, Dickinson and Co.) was diluted with RPMI 1640 medium (Nissui Pharmaceutical Co., Ltd.) containing 0.165 M 3-(N-morpholino)propanesulfonic acid (MOPS) to prepare a fungus liquid having a fungus concentration of 1×10^3 cells/mL to 2×10^3 cells/mL.
as §9, §10, §11, §12, §13, §14, §15

[4] = tested on: C. glabrata; assay: as above; assay type: cell-based, Candida glabrata; conditions: combination use with Test Compound 1
Protocol: as §7, §16, §9, §10, §11, §12, §13, §14, §15

[5] = tested on: C. tropicalis; assay: as above; assay type: cell-based, Candida tropicalis
Protocol: as §7, §16, §9, §10, §11, §12, §13, §14, §15

[6] = tested on: A. flavus strain IFM50915; assay: A. flavus respiratory tract infection model; assay type: in vivo, mice
Protocol: as §1, §2
A liquid containing spores of A. flavus strain IFM50915 stored at −80° C. was thawed, and the number of spores was counted using a hemocytometer followed by diluting with sterile physiological saline containing 0.05% Tween 80 to a concentration of 0.6×10^6 cells/mL to 1.0×10^6 cells/mL to obtain an inoculation fungus liquid.
as §3, §4, §5, §6

[7] = tested on: A. fumigatus; assay: In vitro combination effects, checkerboard method by micro dilution (FIC index); assay type: cell-based, Aspergillus fumigatus
Protocol: as §7, §8, §9, §10, §11, §12, §13, §14, §15

## CCCCCOc1ccc(-c2cc(-c3ccc(C(=O)N[C@H]4C[C@@H](O)[C@@H](O)NC(=O)[C@@H]5[C@@H](O)[C@@H](C)CN5C(=O)[C@H]([C@H](O)CC(N)=O)NC(=O)[C@H]([C@H](O)[C@@H](O)c5ccc(O)c(OS(=O)(=O)O)c5)NC(=O)[C@@H]5C[C@@H](O)CN5C(=O)[C@H]([C@@H](C)O)NC4=O)cc3)no2)cc1 [Micafungin, micafungin] (X1-[Orn(4R-OH,5R-OH)]T[Hyp][hTyr(3S-OH,4S-OH,3'-OSO3H)][Gln(3R-OH)][Pro(3S-OH,4S-Me)]; lactam 1-C)
[1]; MCFG 1 mg/kg
  14-day survival rate: 0%
[1]; MCFG 2 mg/kg
  14-day survival rate: 40%
[1]
  Combination effects in mouse Aspergillus fumigatus infection model: synergistic combination effects
[2]; Table 1
  Ratio indicating Additive effect of combination use with Test Compound 1: 0%
  Ratio indicating Antagonistic effect of combination use with Test Compound 1: 0%
  Ratio indicating Indifferent effect of combination use with Test Compound 1: 0%
  Ratio indicating Synergistic effect of combination use with Test Compound 1: 100%
[3]; C. albicans (20 strains)
  Ratio indicating Additive effect of combination use with Test Compound 1: 80%
  Ratio indicating Antagonistic effect of combination use with Test Compound 1: 0%
  Ratio indicating Indifferent effect of combination use with Test Compound 1: 20%
  Ratio indicating Synergistic effect of combination use with Test Compound 1: 0%
[4]; C. glabrata (10 strains)
  Ratio indicating Additive effect of combination use with Test Compound 1: 70%
  Ratio indicating Antagonistic effect of combination use with Test Compound 1: 0%
  Ratio indicating Indifferent effect of combination use with Test Compound 1: 30%
  Ratio indicating Synergistic effect of combination use with Test Compound 1: 0%
[5]; C. tropicalis (10 strains)
  Ratio indicating Additive effect of combination use with Test Compound 1: 100%
  Ratio indicating Antagonistic effect of combination use with Test Compound 1: 0%
  Ratio indicating Indifferent effect of combination use with Test Compound 1: 0%
  Ratio indicating Synergistic effect of combination use with Test Compound 1: 0%
[6]; MCFG 0.25 mg/kg, Table 5
  14-day survival rate: 0%
[6]; MCFG 0.5 mg/kg, Table 4
  14-day survival rate: 50%
[6]; MCFG 0.5 mg/kg, Table 5
  14-day survival rate: 33.3%
[6]; combination with the test compound of the invention
  Combined effects in mouse Aspergillus flavus infection model: synergistic combined effects
[7]; A. fumigatus (18 strains)
  Ratio indicating Additive effect of combination use with Test Compound 1: 0%
  Ratio indicating Antagonistic effect of combination use with Test Compound 1: 0%
  Ratio indicating Indifferent effect of combination use with Test Compound 1: 0%
  Ratio indicating Synergistic effect of combination use with Test Compound 1: 100%

## C[C@@H](c1nc(-c2ccc(C#N)cc2)cs1)[C@](O)(Cn1cncn1)c1ccc(F)cc1F [Ravuconazole, ravuconazole]
[1]; RVCZ 5 mg/kg
  14-day survival rate: 0%
[1]; RVCZ 10 mg/kg
  14-day survival rate: 40%
[1]
  Combination effects in mouse Aspergillus fumigatus infection model: synergistic combination effects
[2]; Table 2
  Ratio indicating Additive effect of combination use with Test Compound 1: 25%
  Ratio indicating Antagonistic effect of combination use with Test Compound 1: 0%
  Ratio indicating Indifferent effect of combination use with Test Compound 1: 75%
  Ratio indicating Synergistic effect of combination use with Test Compound 1: 0%
[3]; C. albicans (9 strains)
  Ratio indicating Additive effect of combination use with Test Compound 1: 56%
  Ratio indicating Antagonistic effect of combination use with Test Compound 1: 0%
  Ratio indicating Indifferent effect of combination use with Test Compound 1: 0%
  Ratio indicating Synergistic effect of combination use with Test Compound 1: 44%
[3]; Candida albicans IFM49738, resistant to azole antifungal agents
  Effect of combination use with Test Compound 1 (FIC index evaluation): synergistic (A combination FIC index of 0.5 or less was evaluated as indicating synergistic action)
[4]; C. glabrata (5 strains)
  Ratio indicating Additive effect of combination use with Test Compound 1: 60%
  Ratio indicating Antagonistic effect of combination use with Test Compound 1: 0%
  Ratio indicating Indifferent effect of combination use with Test Compound 1: 0%
  Ratio indicating Synergistic effect of combination use with Test Compound 1: 40%
[5]; C. tropicalis (5 strains)
  Ratio indicating Additive effect of combination use with Test Compound 1: 0%
  Ratio indicating Antagonistic effect of combination use with Test Compound 1: 0%
  Ratio indicating Indifferent effect of combination use with Test Compound 1: 0%
  Ratio indicating Synergistic effect of combination use with Test Compound 1: 100%
[5]; Candida tropicalis strains E83037, E83038, E83039, E83040 and E83041, resistant to azole antifungal agents
  Effect of combination use with Test Compound 1 (FIC index evaluation): synergistic (A combination FIC index of 0.5 or less was evaluated as indicating synergistic action)
[6]; RVCZ 2.5 mg/kg
  14-day survival rate: 40%
[6]; RVCZ 5 mg/kg
  14-day survival rate: 80%
[7]; A. fumigatus (16 strains)
  Ratio indicating Additive effect of combination use with Test Compound 1: 6%
  Ratio indicating Antagonistic effect of combination use with Test Compound 1: 0%
  Ratio indicating Indifferent effect of combination use with Test Compound 1: 94%
  Ratio indicating Synergistic effect of combination use with Test Compound 1: 0%
